US20090142269A1, “ISOTOYPICALLY-LABELED BENZOTHIAZOLE COMPOUNDS AS IMAGING AGENTS FOR AMYLOIDOGENIC PROTEINS” (UNIVERSITY OF OITTSBURGH-OF THE COMMONWEALTH SYSTEM OF …, priority 2005, published 2009)
pKi: −log10 of the molar value.

System: not listed separately
Assay: Baboon brain entry study (PET time-activity curves)
Type: in vivo
Conditions: 40 kg baboon, 8 mCi intravenously, PET brain imaging over 2 h post injection
Protocol: A 40 kg baboon was anesthesized, immobilized, and placed on a ventilator. The baboon was positioned in a PET scanner to image the brain, and a transmission scan was performed to correct for attenuation. The baboon was injected intravenously with a solution containing 8 mCi of [F-18]-6-Methoxy-2-(4′-fluorophenyl)benzothiazole, and the brain was imaged in a series of increasing data collection time bins over 2 h post injection. Following data acquisition, the images were reconstructed and regions of interest were drawn. Decay and […] corrected time-activity curves (TAC) were generated for each of the regions to determine the quantitative time course of radioactivity in each brain region.

| SMILES | brain penetration of the radiotracer | clearance of radioactivity from normal baboon brain |
| --- | --- | --- |
| COc1ccc2nc(-c3ccc([18F])cc3)sc2c1 [[F-18]-6-Methoxy-2-(4′-fluorophenyl)benzothiazole] | excellent brain penetration | rapid clearance |

Target: T1, synthetic Aβ(1-40) (Homo sapiens, UniProt P05067)
T1 construct: analyzed, using synthetic Aβ(1-40)
T1 sequence (P05067 672-711): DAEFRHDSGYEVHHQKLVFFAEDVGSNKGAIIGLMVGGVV
Assay: Competition of [3H]BTA-1 binding from synthetic Aβ(1-40)
Conditions: in vitro, aggregated amyloid
Protocol: The characteristics of benzothiazole derivative binding were analyzed, using synthetic Aβ(1-40) and 2-(4′-[^3H]methylamino-phenyl)-benzothiazole ([^3H]BTA-1) in phosphate-buffered saline (pH 7.4), as previously described. Klunk et al., Life Sci. 69:1471 (2001); Mathis et al., Bioorg. Med. Chem. Lett. 12: 295 (2002).
The characteristics of benzothiazole derivative binding were analyzed using synthetic Aβ(1-40) and 2-(4′ [^3H]methylamino-phenyl)-benzothiazole ([^3H]BTA-1) in phosphate-buffered saline (pH 7.4), as previously described. Klunk et al., Life Sci. 69:1471 (2001); Mathis et al., Bioorg. Med. Chem. Lett., 12:295 (2002). The table below lists the inhibition constants (Ki) of exemplary benzothiazole compounds shown for competition of [^3H]BTA-1 binding from synthetic Aβ(1-40).

| SMILES | affinity of the ligand in vitro for aggregated amyloid |
| --- | --- |
| COc1ccc2nc(-c3ccc([18F])cc3)sc2c1 [[F-18]-6-Methoxy-2-(4′-fluorophenyl)benzothiazole] | relatively high affinity |

Same assay, conditions: inhibition constant for competition of [3H]BTA-1 binding from synthetic Aβ(1-40), phosphate-buffered saline pH 7.4

| SMILES | pKi |
| --- | --- |
| Nc1ccc2nc(-c3ccc(F)cc3)sc2c1 | 7.07 |
| CNc1ccc2nc(-c3ccc(O)cc3F)sc2c1 | 8.92 |
| CS(=O)(=O)c1ccc2nc(-c3ccc(F)cc3)sc2c1 | 5.90 |
| Oc1cccc2sc(-c3ccc(F)cc3)nc12 | 6.42 |
| Oc1ccc2nc(-c3ccc(CF)cc3)sc2c1 | 7.33 |
| CNc1cc(N)ccc1-c1nc2ccc(O)cc2s1 | 7.02 |
| Nc1c(F)cccc1-c1nc2ccc(O)cc2s1 | 8.51 |
| CNc1ccc2nc(-c3ccc(F)cc3)sc2c1 | 8.13 |
| Nc1cccc(F)c1-c1nc2ccc(O)cc2s1 | 7.85 |
| Ic1ccc(-c2nc3ccccc3s2)cc1 | 8.59 |
| COc1ccc2nc(-c3ccc(F)c(F)c3)sc2c1 | 6.81 |
| COc1cccc2sc(-c3ccc(F)cc3)nc12 | 6.22 |
| COc1cc(OC)c2nc(-c3ccc(F)cc3)sc2c1 | 6.94 |
| Oc1ccc2nc(-c3ccc(F)c(Cl)c3)sc2c1 | 6.89 |
| COc1cc(OC)c2sc(-c3ccc(F)cc3)nc2c1 | 7.47 |
| CNc1c(F)cccc1-c1nc2ccc(O)cc2s1 | 7.34 |
| Nc1c(F)c(F)c(-c2nc3ccc(O)cc3s2)c(F)c1F | 6.00 |
| CNc1ccc(-c2nc3ccc(O)cc3s2)c(N)c1 | 8.27 |
| COc1ccc2nc(-c3ccc(F)cc3)sc2c1 | 8.22 |
| COc1cc(O)c2nc(-c3ccc(F)cc3)sc2c1 | 7.29 |
| COc1cccc2nc(-c3ccc(F)cc3)sc12 | 7.83 |
| Oc1ccc2nc(-c3ccc(F)c(F)c3)sc2c1 | 7.72 |
| FCCOc1ccc2nc(-c3ccc(F)cc3)sc2c1 | 8.01 |
| CNc1c(F)c(F)c(-c2nc3ccc(O)cc3s2)c(F)c1F | 6.56 |
| N#Cc1ccc2nc(-c3ccc(F)cc3)sc2c1 | 6.88 |
| CN(C)c1ccc2nc(-c3ccc(O)cc3)sc2c1 | 7.97 |
| Oc1ccc2nc(-c3ccc(F)cc3O)sc2c1 | 7.50 |

| SMILES | pKi |
| --- | --- |
| Brc1ccc(-c2nc3ccccc3s2)cc1 | 8.06 |
| CNc1ccc(-c2nc3ccccc3s2)cc1CCCF | 7.11 |
| CNc1ccc2nc(-c3ccc(O)c(F)c3)sc2c1 | 8.28 |
| CNc1ccc(-c2nc3ccc(OCCOCCOCCF)cc3s2)cc1 | 8.31 |
| COc1ccc2nc(-c3c(F)c(F)c(N)c(F)c3F)sc2c1 | 6.92 |
| COc1ccc2nc(-c3ccc(F)cc3O)sc2c1 | 8.96 |
| COc1cc2nc(-c3ccc(F)cc3)sc2cc1OC | 7.05 |
| CNc1ccc2nc(-c3ccc(OC)cc3)sc2c1 | 8.74 |
| COc1ccc(OC)c2sc(-c3ccc(F)cc3)nc12 | 6.48 |
| CNc1c(F)c(F)c(-c2nc3ccc(OC)cc3s2)c(F)c1F | 7.59 |
| COc1ccc2sc(-c3ccc(F)cc3)nc2c1 | 7.87 |
| CNc1cc(F)ccc1-c1nc2ccc(O)cc2s1 | 7.31 |
| Oc1ccc2nc(-c3ccc(F)cc3)sc2c1 | 6.74 |
| Oc1ccc2sc(-c3ccc(F)cc3)nc2c1 | 6.30 |
| Nc1ccccc1-c1nc2ccccc2s1 | 7.71 |
| FCCCOc1ccc2nc(-c3ccc(F)cc3)sc2c1 | 7.57 |
| COc1ccc(-c2nc3ccc(N(C)C)cc3s2)cc1 | 8.89 |
| Nc1cc(F)ccc1-c1nc2ccc(O)cc2s1 | 7.83 |
| Nc1ccc(F)cc1-c1nc2ccc(O)cc2s1 | 7.66 |
| Fc1ccc(-c2nc3ccccc3s2)cc1 | 7.36 |
| OCc1ccc(-c2nc3ccc(O)cc3s2)cc1 | 6.51 |
| COc1ccc2sc(-c3ccc(F)cc3)nc2c1OC | 7.09 |
| Cc1ccc(-c2nc3ccccc3s2)cc1 | 7.72 |
| O=[N+]([O-])c1cc(F)ccc1-c1nc2ccccc2s1 | 6.09 |
| COc1ccc2nc(-c3ccc(F)cc3OC)sc2c1 | 7.78 |
| Nc1cc(F)ccc1-c1nc2ccccc2s1 | 8.31 |
| Oc1cccc2nc(-c3ccc(F)cc3)sc12 | 6.73 |
